Measurements reported in ChEMBL document CHEMBL1136002 (J Med Chem, 2002).
pIC50, pKi: −log10 of the molar value.

Columns and labels:
[1] = target: T1, Sodium-dependent dopamine transporter (Homo sapiens, UniProt Q01959); experiment: Binding affinity towards dopamine transporter (DAT) by using [125I]RTI-55 radioligand
[2] = target: T2, Sodium-dependent serotonin transporter (Homo sapiens, UniProt P31645); experiment: Ratio of Ki value towards Serotonin transporter (SERT) to that of Dopamine transporter (DAT)
Target sequence in this assay (P31645 whole entry, looked up): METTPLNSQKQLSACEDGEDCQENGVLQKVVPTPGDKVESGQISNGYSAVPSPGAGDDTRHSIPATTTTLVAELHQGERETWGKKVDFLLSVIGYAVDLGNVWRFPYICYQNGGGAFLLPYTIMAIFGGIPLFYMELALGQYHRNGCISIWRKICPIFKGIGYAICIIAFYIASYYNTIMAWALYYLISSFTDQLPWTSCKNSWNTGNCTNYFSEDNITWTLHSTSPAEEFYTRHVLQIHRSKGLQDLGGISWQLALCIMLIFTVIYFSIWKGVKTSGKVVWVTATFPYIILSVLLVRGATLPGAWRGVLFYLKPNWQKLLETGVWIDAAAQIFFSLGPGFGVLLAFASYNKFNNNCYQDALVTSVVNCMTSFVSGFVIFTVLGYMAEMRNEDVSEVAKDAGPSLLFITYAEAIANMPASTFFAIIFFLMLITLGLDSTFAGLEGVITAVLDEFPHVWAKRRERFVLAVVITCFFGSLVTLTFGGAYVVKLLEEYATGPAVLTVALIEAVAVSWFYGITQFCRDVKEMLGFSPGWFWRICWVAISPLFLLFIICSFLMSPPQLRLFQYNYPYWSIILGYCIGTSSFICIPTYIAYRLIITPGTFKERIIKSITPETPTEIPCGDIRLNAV

[3] = target: T2, Sodium-dependent serotonin transporter; experiment: Binding affinity for serotonin transporter (SERT) using [125I]RTI-55
Target sequence in this assay (P31645 whole entry): as the sequence (P31645 whole entry, looked up) above

[4] = target: T1, Sodium-dependent dopamine transporter; experiment: Compound was tested for the inhibition of dopamine (DA) reuptake; format: functional
[5] = target: Sodium-dependent noradrenaline transporter (Homo sapiens, UniProt P23975); experiment: Compound was tested for the inhibition of norepinephrine (NE) reuptake; format: functional
[6] = target: T2, Sodium-dependent serotonin transporter; experiment: Compound was tested for the inhibition of serotonin (5-HT) reuptake; format: functional
Target sequence in this assay (P31645 whole entry): as the sequence (P31645 whole entry, looked up) above

T1 sequence (Q01959 whole entry): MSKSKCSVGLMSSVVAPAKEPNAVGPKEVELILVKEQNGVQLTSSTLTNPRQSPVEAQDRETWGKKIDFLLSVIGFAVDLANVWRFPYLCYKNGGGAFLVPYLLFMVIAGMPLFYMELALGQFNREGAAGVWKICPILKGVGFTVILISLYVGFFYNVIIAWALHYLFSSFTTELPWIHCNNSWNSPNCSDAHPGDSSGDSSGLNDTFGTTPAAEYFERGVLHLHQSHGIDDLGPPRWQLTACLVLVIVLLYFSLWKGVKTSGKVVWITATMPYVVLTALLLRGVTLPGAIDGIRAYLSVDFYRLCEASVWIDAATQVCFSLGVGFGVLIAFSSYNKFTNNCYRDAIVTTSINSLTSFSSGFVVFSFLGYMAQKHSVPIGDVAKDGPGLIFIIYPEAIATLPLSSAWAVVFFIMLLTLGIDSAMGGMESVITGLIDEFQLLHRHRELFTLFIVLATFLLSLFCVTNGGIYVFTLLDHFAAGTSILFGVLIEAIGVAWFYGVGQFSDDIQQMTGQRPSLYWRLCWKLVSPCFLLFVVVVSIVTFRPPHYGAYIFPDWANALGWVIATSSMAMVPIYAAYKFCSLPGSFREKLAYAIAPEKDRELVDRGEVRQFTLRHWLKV
Chain of Sodium-dependent noradrenaline transporter (P23975 whole entry): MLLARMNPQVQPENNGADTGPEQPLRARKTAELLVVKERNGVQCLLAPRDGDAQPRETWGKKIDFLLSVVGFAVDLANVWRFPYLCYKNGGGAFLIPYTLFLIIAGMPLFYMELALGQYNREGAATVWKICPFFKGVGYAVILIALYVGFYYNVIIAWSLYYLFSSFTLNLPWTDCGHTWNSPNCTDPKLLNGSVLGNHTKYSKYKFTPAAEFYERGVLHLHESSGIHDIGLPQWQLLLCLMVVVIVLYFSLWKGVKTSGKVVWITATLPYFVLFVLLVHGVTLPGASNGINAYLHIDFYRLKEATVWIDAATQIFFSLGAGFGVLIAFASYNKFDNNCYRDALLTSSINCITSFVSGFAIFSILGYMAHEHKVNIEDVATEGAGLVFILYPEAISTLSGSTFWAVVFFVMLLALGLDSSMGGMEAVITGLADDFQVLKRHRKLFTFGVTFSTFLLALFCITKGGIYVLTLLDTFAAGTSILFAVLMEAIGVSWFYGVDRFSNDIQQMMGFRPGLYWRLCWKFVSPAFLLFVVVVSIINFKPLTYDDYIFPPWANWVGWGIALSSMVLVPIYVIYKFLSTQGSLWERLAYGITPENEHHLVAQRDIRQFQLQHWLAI

With `Fc1ccc(C(OCCC2CCN(Cc3cccc4ccccc34)CC2)c2ccc(F)cc2)cc1` as the molecule, how does the pKi [1] read?
Its pKi is 7.80.

What about the Ratio [2] of the same molecule?
Its Ratio is 23.

And the pKi [3]?
The pKi was 6.43.

With `Fc1ccc(C(OCCC2CCN(Cc3cc4ccccc4o3)CC2)c2ccc(F)cc2)cc1` as the molecule, how does the Ratio [2] read?
Its Ratio is 84.

And the pKi [3]?
The pKi was 7.07.

For `Fc1ccc(C(OCCC2CCN(Cc3cc4ccccc4[nH]3)CC2)c2ccc(F)cc2)cc1`, which Ratio [2] is on record?
Its Ratio is 121.

And the pKi [3]?
Its pKi is 7.06.

How did the pKi [1] turn out when `Fc1ccc(C(OCCC2CCN(C/C=C/c3cccs3)CC2)c2ccc(F)cc2)cc1` was run?
Its pKi is 8.89.

What about the Ratio [2] of the same molecule?
Its Ratio is 35.

And the pKi [3]?
The pKi was 7.35.

What does the source list for `Fc1ccc(C(OCCC2CCN(CC#Cc3ccccc3)CC2)c2ccc(F)cc2)cc1`?
Ratio [2]: 31; pKi [3]: 6.79

What does the source list for `Fc1ccc(C(OCCC2CCN(C/C=C/c3ccco3)CC2)c2ccc(F)cc2)cc1`?
pKi [1]: 9.00; Ratio [2]: 41; pKi [3]: 7.39

With `Fc1ccc(C(OCCC2CCN(Cc3ccc4ccccc4c3)CC2)c2ccc(F)cc2)cc1` as the molecule, how does the pIC50 [4] read?
Its pIC50 is 8.14.

And the Ratio [2]?
Its Ratio is 323.

What about the pIC50 [5] of the same molecule?
Its pIC50 is 7.03.

And the pIC50 [6]?
Its pIC50 is 6.56.

And the pKi [3]?
Its pKi is 6.64.

What does the source list for `Fc1ccc(C(OCCC2CCN(C/C=C/c3ccccc3)CC2)c2ccc(F)cc2)cc1`?
pKi [1]: 9.35; Ratio [2]: 104; pKi [3]: 7.33

With `Fc1ccc(C(OCCC2CCN(Cc3cc4ccccc4s3)CC2)c2ccc(F)cc2)cc1` as the molecule, how does the pIC50 [4] read?
Its pIC50 is 7.92.

And the Ratio [2]?
The Ratio was 153.

What about the pIC50 [5] of the same molecule?
The pIC50 was 6.59.

And the pIC50 [6]?
Its pIC50 is 5.98.

What about the pKi [3] of the same molecule?
The pKi was 6.61.

How did the pKi [1] turn out when `Fc1ccc(C(OCCC2CCN(CCCc3ccccc3)CC2)c2ccc(F)cc2)cc1` was run?
Its pKi is 8.96.

And the Ratio [2]?
The Ratio was 65.

And the pKi [3]?
Its pKi is 7.17.
